Tested on: green peach aphid (Myzus persicae)
Assay: Test F: control of green peach aphid on radish plant, contact and/or systemic
Assay type: in vivo
Conditions: sprayed at 50 ppm; assessed after 6 days
Method: Test compounds were formulated using a solution containing 10% acetone, 90% water and 300 ppm X-77® Spreader Lo-Foam Formula non-ionic surfactant containing alkylarylpolyoxyethylene, free fatty acids, glycols and isopropanol (Loveland Industries, Inc. Greeley, Colorado, USA). The formulated compounds were applied in 1 mL of liquid through a SUJ2 atomizer nozzle with ⅛ JJ custom body (Spraying Systems Co. Wheaton, Ill., USA) positioned 1.27 cm (0.5 inches) above the top of each test unit. Test compounds were sprayed at 250 and/or 50 ppm, and replicated three times. After spraying of the formulated test compound, each test unit was allowed to dry for 1 h and then a black, screened cap was placed on top. The test units were held for 6 days in a growth chamber at 25° C. and 70% relative humidity. Plant feeding damage was then visually assessed based on foliage consumed.
For evaluating control of green peach aphid (Myzus persicae) through contact and/or systemic means, the test unit consisted, of a small open container with a 12-15-day-old radish plant inside. […]
Test compounds were formulated and sprayed at 250 ppm and/or 50 ppm as described for Test A. The applications were replicated three times. […] Each test unit was then visually assessed for insect mortality.

## O=c1c(SC(F)(F)F)c([O-])[n+](Cc2cnc(Cl)s2)c2ccccn12 [Compound 102]
  mortality (at least 80% mortality): at least 80%

Source: patent publication US20120122679A1, “MESOIONIC PESTICIDES” (E. I. Du Pont De Nemours and Company, priority 2009, published 2012)
